How the values were obtained:
Type in all cases: cell-based, human
RPMI-8226 = assay: CellTiter cell proliferation assay, RPMI-8226 (multiple myeloma, irresponsive control); settings: RPMI-8226 multiple myeloma control cell line
Description: (§1) ATL cell lines Hut102, ED40515, S1T, OATL4, and OATL9, HTLV-1 transformed cell lines MT-2, MT-4, and C8166, PTCL cell line Hut78, other T-cell Jurkat, MOLT4, HL60, and monocyte cell line K562 are laboratory stocks (Dr. Hidekatsu Iha, Oita University, and Prof. Kazuhiro Morishita, The University of Miyazaki). ATL cell lines ST1, KOB, KK1, and SO4 are gift from Dr. Hiroo Hasegawa, Nagasaki University). NCI-H929 and RPMI-8226 were purchased from American Type Culture Collection (ATCC: Manassas, Va.). Each cell line was maintained with RPMI-1640 culture media supplemented with 15% fetal bovine serum (FBS: Equitech-Bio Inc., Kerrville, Tex.), penicillin G (50 U/ml), and streptomycin (50 μg/ml). Antibiotics were purchased from Sigma-Aldrich Co. LLC. (St. Louis, Mo.).
(§2) Cells were plated in 24-well plates at 5×10^4 cells per 1.5 mL RPMI1640 and kept in 5% CO2 incubator for 24 hours (cell number should reach 1×10^5). […] After 10 minutes incubation at room temperature, the reaction mixture in 96-well plates was read by Glomax luminometer (Promega). Average values and standard deviation were obtained from four independent experiments.
(§3) Relative CellTiter values compared to untreated control cells at day 0 were plotted. […] In addition, OATL4 and KOB display 30% more reductions (see Table 2).

NCI-H929 = assay: CellTiter cell proliferation assay, NCI-H929 (multiple myeloma, responsive control); settings: NCI-H929 multiple myeloma control cell line
Description: as §1, §2, §3

Hut102 = assay: CellTiter cell proliferation assay, Hut102 (ATL cell line)
Description: as §1, §2, §3
(§4) The CellTiter Assay was performed the same way as in Section 6.3, Example 3. Standard deviation was calculated from four experiments.

OATL4 = assay: CellTiter cell proliferation assay, OATL4 (ATL cell line); settings: see Table 2
Description: as §1, §2, §3

KOB = assay: CellTiter cell proliferation assay, KOB (ATL cell line); settings: see Table 2
Description: as §1, §2, §3

MT-4 = assay: CellTiter cell proliferation assay, MT-4 (HTLV-1 transformed)
Description: as §1, §2, §3

HuT78 = assay: CellTiter cell proliferation assay, HuT78 (HTLV-1 negative T-cell line); settings: 10 μM lenalidomide for three days
Description: as §1, §2
Relative CellTiter values compared to untreated control cells at day 0 were plotted. […]
as §4

MOLT4 = assay: CellTiter cell proliferation assay, MOLT4; settings: MOLT-4; see Table 2
Description: as §1, §2, §3

[1] = tested on: cell line 5 (ATL cell line); assay: Lenalidomide sensitivity of cell types of Example 2, cell line 5
Description: (§5) Twenty-three types of cells from, e.g., ATL cell lines, lymphoma cell lines, leukemia cell lines, healthy peripheral blood mononuclear cells (PBMCs), and human T-lymphotropic virus 1 (HTLV-1) carrier's PBMCs are employed in this example.

[2] = tested on: cell line 6 (ATL cell line); assay: Lenalidomide sensitivity of cell types of Example 2, cell line 6
Description: as §5

[3] = tested on: cell line 12 (ATL cell line); assay: Lenalidomide sensitivity of cell types of Example 2, cell line 12
Description: as §5

[4] = tested on: cell lines 1-4, 7, 10-11, and 13-23; assay: Lenalidomide sensitivity of cell types of Example 2, other cell lines
Description: as §5

[5] = Homo sapiens, HuT-102, read-out: remaining activities (cell proliferation activity)

Nc1cccc2c1CN(C1CCC(=O)NC1=O)C2=O (centres unmarked) [lenalidomide, 1-oxo-2-(2,6-dioxopiperidin-3-yl)-4-aminoisoindoline]
response against lenalidomide treatment (FIG. 3) (RPMI-8226): insensitive | response against lenalidomide treatment (FIG. 3) (NCI-H929): sensitive | activity at 0.1 µM (Hut102; [5]): 64.2% | activity at 1 µM (Hut102; [5]): 68.3% | activity at 10 µM (Hut102; [5]): 46% | activity at 100 µM (Hut102; [5]): 53% | time-dependent cell growth (remaining growth activities, FIG. 4) (Hut102; HuT102, 10 μM lenalidomide for three days): significant decrease in cell growth | reductions of cell proliferation activity (OATL4): ≥ 30% | growth inhibition (KOB): 30% | reductions of cell proliferation activity (KOB): ≥ 30% | sensitivity to lenalidomide (MT-4): moderate sensitive | time-dependent cell growth (remaining growth activities, FIG. 4) (HuT78): almost unchanged | growth inhibition (MOLT4): 30% | sensitivity to lenalidomide [1]: highly-sensitive | sensitivity to lenalidomide [2]: weak/moderate-sensitive | sensitivity to lenalidomide [3]: weak/moderate-sensitive | sensitivity to lenalidomide [4]: intense tolerance

Reference: US10338077B2, “Methods for determining drug efficacy for treatment of cancer ration of cereblon associated proteins” (Celgene Corporation, priority 2015, dated 2019)
